Series [1] has as its target T1, D(2) dopamine receptor (Homo sapiens, UniProt P14416).
For series [2], the target named is T1, D(2) dopamine receptor. This is another data set of the same source.
In series [3] the target is T1, D(2) dopamine receptor. Format: cell membranes, HEK293T, Membrane.
For series [4], the target named is T2, 5-hydroxytryptamine receptor 2C (Homo sapiens, UniProt P28335).
T2 sequence (P28335 whole entry): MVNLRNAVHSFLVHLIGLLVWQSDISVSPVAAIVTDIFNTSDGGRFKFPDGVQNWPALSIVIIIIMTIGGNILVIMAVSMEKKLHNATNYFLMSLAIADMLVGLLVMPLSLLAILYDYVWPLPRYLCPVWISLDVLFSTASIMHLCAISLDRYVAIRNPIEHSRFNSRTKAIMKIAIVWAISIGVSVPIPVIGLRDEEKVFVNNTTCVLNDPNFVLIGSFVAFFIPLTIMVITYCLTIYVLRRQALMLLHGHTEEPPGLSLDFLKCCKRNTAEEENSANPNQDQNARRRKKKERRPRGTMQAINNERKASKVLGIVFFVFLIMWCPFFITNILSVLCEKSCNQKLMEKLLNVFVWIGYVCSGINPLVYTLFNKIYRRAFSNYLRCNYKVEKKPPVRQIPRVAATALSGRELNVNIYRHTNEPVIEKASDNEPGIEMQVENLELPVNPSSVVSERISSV

For the next series, the target named is T3, D(4) dopamine receptor (Homo sapiens, UniProt P21917).
T3 sequence (P21917 whole entry): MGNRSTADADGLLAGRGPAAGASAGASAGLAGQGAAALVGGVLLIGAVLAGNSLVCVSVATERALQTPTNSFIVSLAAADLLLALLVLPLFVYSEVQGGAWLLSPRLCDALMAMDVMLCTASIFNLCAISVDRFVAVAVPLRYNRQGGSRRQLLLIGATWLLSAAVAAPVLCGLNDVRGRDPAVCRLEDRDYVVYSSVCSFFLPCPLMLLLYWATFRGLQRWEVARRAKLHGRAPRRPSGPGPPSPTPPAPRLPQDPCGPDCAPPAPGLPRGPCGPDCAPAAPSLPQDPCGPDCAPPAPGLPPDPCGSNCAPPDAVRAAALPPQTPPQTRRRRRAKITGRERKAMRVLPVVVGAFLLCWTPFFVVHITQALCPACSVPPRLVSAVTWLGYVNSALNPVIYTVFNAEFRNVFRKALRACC

Series [5] addresses 5-hydroxytryptamine receptor 2A (Homo sapiens, UniProt P28223). The format is cell membranes, HEK293T, Membrane.
The next series addresses D(1A) dopamine receptor (Homo sapiens, UniProt P21728).
Series [6] can be described thus: in vitro. To be noted: mouse, liver microsomes.
Description: Metabolic stability in mouse liver microsomes assessed as half life preincubated for 5 mins followed by NADPH addition measured after 10 mins by LC-MS analysis
Series [7] in a line: in vitro. To be noted: human, liver microsomes.
Description: Metabolic stability in human liver microsomes assessed as half life preincubated for 5 mins followed by NADPH addition measured after 10 mins by LC-MS analysis

Values joined by “and” are separate entries in the source; they are usually repeats but may differ in a detail not shown here. Equal entries are not always repeated.

Our source for the EC50, Ki and half-life values is ChEMBL document CHEMBL4840367, “2-Phenylcyclopropylmethylamine Derivatives as Dopamine D2 Receptor Partial Agonists: Design, Synthesis, and Biological Evaluation” (J Med Chem, 2021).

T1 sequence (P14416 whole entry): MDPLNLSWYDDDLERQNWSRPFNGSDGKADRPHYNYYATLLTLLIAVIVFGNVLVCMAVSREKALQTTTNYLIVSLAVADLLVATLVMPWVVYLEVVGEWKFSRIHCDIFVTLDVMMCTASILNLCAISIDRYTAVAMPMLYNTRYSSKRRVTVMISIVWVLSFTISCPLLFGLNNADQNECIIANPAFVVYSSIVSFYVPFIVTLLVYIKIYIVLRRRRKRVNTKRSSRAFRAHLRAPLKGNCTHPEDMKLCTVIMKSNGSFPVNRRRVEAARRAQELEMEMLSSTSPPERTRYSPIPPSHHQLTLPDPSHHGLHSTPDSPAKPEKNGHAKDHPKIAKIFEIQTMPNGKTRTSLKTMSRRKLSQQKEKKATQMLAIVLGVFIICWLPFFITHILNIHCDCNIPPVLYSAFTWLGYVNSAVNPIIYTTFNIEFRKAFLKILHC
Sequence of 5-hydroxytryptamine receptor 2A (P28223 whole entry): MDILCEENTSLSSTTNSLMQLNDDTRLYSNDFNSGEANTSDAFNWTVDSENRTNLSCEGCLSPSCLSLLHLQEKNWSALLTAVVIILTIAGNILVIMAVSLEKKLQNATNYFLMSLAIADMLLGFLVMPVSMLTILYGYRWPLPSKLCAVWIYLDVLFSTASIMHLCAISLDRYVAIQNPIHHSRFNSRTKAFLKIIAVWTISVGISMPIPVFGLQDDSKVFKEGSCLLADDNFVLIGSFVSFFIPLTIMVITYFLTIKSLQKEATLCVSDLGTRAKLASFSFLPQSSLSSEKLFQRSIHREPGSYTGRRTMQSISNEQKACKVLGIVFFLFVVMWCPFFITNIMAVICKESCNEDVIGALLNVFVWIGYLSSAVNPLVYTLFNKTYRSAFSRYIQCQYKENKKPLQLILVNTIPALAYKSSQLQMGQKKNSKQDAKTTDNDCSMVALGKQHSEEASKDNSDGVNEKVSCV
Sequence of D(1A) dopamine receptor (P21728 whole entry): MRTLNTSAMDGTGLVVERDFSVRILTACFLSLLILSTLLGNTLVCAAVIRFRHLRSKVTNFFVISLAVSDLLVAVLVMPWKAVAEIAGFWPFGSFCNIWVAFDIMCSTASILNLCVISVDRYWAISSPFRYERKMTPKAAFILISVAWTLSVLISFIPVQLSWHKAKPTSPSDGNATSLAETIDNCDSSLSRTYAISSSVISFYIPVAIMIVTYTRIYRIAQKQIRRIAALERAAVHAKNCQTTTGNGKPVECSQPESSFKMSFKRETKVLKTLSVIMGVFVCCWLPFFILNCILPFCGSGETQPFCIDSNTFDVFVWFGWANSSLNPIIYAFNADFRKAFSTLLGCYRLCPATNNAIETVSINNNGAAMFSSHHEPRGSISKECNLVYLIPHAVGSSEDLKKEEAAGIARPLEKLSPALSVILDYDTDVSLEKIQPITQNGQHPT

On to `COc1ccccc1C1CC1CNCCCOc1ccc2c(c1)NC(=O)CC2` (stereo not given), for which the figures for the EC50 at D(2) dopamine receptor [1] and on D(2) dopamine receptor [2] were 10 nM and 9.3 nM, respectively. The molecule also yielded a Ki on D(2) dopamine receptor [3] of 126 nM.

With `COc1ccccc1C1CC1CNCC[C@H]1CC[C@H](NC(=O)c2ccccc2)CC1` (stereo not given in full), the inhibition constant (Ki) at D(2) dopamine receptor [3] was determined as 1040 nM.

As to `COc1ccc(Cl)cc1[C@H]1C[C@@H]1CNCCCCOc1ccc2c(c1)NC(=O)CC2`, the Ki in [4] was 373 nM; at D(4) dopamine receptor, 373 nM; in series [5], 2090 nM; at D(1A) dopamine receptor it was over 10000 nM.

`CN(C)C(=O)N[C@H]1CC[C@H](CCNCC2CC2c2cccc3c2OCCO3)CC1` (stereo not given in full) came in with a Ki on D(2) dopamine receptor [3] of 2310 nM. In other words, the single-digit micromolar range.

As for `COc1ccc(F)cc1[C@H]1C[C@@H]1CNCCCOc1ccc2ccc(=O)[nH]c2c1`, the Ki in series [4] was 305 nM; at D(4) dopamine receptor, 305 nM; in [5] it was 520 nM; on D(1A) dopamine receptor, over 10000 nM.

Consider `COc1ccccc1C1CC1CNCC[C@H]1CC[C@H](NC(=O)N(C)C)CC1` (stereo not given in full), for which the Ki at D(2) dopamine receptor [3] was 1820 nM.

Molecule `CN(C)C(=O)N[C@H]1CC[C@H](CCNCC2CC2c2cccc(Cl)c2Cl)CC1` (stereo not given in full) yielded a Ki at D(2) dopamine receptor [3] of 1330 nM.

With `CN(C)C(=O)N[C@H]1CC[C@H](CCN2CCN(c3cccc(Cl)c3Cl)CC2)CC1` [CARIPRAZINE], the half-life at 10 min in the series “in vitro [6]” was 22.3 min; in the series “in vitro [7]”, 32.7 min.

Take `CN(CCCCOc1ccc2c(c1)NC(=O)CC2)CC1CC1c1cccc(Cl)c1Cl` (stereo not given): on D(2) dopamine receptor [3], the Ki was 322 nM.

Consider `COc1ccccc1C1CC1CNCC[C@H]1CC[C@H](NC(=O)N2CCCC2)CC1` (stereo not given in full), for which the Ki on D(2) dopamine receptor [3] stood at 2190 nM. This Ki is about 6.8-fold higher than that of the molecule before.

`O=C1CCc2ccc(OCCCCNCC3CC3c3cccc4c3OCCO4)cc2N1` (stereo not given): the values for the EC50 on D(2) dopamine receptor [1] and at D(2) dopamine receptor [2] were 61.7 nM and 95.5 nM, respectively. The molecule also gave a Ki on D(2) dopamine receptor [3] of 384 nM.

For the molecule `COc1ccccc1C1CC1CNCCCOc1ccc2ccc(=O)[nH]c2c1` (stereo not given), the figures for the EC50 at D(2) dopamine receptor [1] and at D(2) dopamine receptor [2] were 7.08 nM and 11.2 nM, respectively. In addition, affinity at D(2) dopamine receptor [3] was put at a Ki of 156 nM.

In the case of `COc1ccc(F)cc1C1CC1CNCCCOc1ccc2c(c1)NC(=O)CC2` (stereo not given), the EC50 on D(2) dopamine receptor [1] came out at 14.9 nM; on D(2) dopamine receptor [2], 3.47 nM. Moreover, the Ki at D(2) dopamine receptor [3] was found to be 27.4 nM.

In the case of `COc1ccccc1C1CC1CNCCCCCOc1ccc2c(c1)NC(=O)CC2` (stereo not given), the EC50 stood at 417 nM on D(2) dopamine receptor [1] and 891 nM on D(2) dopamine receptor [2]. The molecule further yielded a Ki at D(2) dopamine receptor [3] of 259 nM.

As for `COc1ccccc1C1CC1CNC/C=C/COc1ccc2c(c1)NC(=O)CC2` (stereo not given), the EC50 at D(2) dopamine receptor [1] is 61.3 nM and 60.3 nM; at D(2) dopamine receptor [2] it was 22.9 nM. Also, on D(2) dopamine receptor [3], the Ki came to 454 nM.

Turning to `CSc1ccccc1C1CC1CNCCCCOc1ccc2ccc(=O)[nH]c2c1` (stereo not given), the EC50 at D(2) dopamine receptor [1] was 7.43 nM; at D(2) dopamine receptor [2] it was 2.88 nM. Also, the Ki on D(2) dopamine receptor [3] stood at 95.2 nM.

At D(1A) dopamine receptor, `CN1CCc2ccccc2Cc2[nH]c3ccccc3c2CC1` had a Ki of 2.93 nM.

Consider `COc1ccc(F)cc1[C@H]1C[C@@H]1CNCCCCOc1ccc2ccc(=O)[nH]c2c1`, for which the Ki in [4] was 122 nM; at D(4) dopamine receptor, 122 nM; in [5], 1410 nM; on D(1A) dopamine receptor, over 10000 nM.

In the case of `O=c1ccc2ccc(OCCCCNCC3CC3c3cccc4c3OCCO4)cc2[nH]1` (stereo not given), the EC50 came out at 23.4 nM at D(2) dopamine receptor [1] and 26.3 nM on D(2) dopamine receptor [2]. The molecule also came in with an inhibition constant Ki on D(2) dopamine receptor [3] of 178 nM.

Consider `COc1ccccc1C1CC1CNCCCCOc1ccc2ccc(=O)[nH]c2c1` (stereo not given), for which the EC50 on D(2) dopamine receptor [1] came out at 32.4 nM; on D(2) dopamine receptor [2] it was 26.3 nM. On D(2) dopamine receptor [3], the affinity, expressed as Ki, was 59.9 nM.

Consider `O=c1ccc2ccc(OCCCCN3CCN(c4cccc5sccc45)CC3)cc2[nH]1` [BREXPIPRAZOLE], for which the half-life at 10 min in the series “in vitro [6]” came out at 17.2 min; in “in vitro [7]”, 27.2 min. Moreover, the EC50 at D(2) dopamine receptor [1] amounted to 16.1 nM; at D(2) dopamine receptor [2], 10.2 nM. In addition, on D(2) dopamine receptor [3], the Ki came out at 0.51 nM.

Regarding `COc1ccc(Cl)cc1[C@H]1C[C@@H]1CNCCCOc1ccc2ccc(=O)[nH]c2c1`, the Ki in [4] is 604 nM; at D(4) dopamine receptor, 604 nM; in series [5] it was 1160 nM; at D(1A) dopamine receptor, over 10000 nM.

With `CSc1ccccc1C1CC1CNCCCCOc1ccc2c(c1)NC(=O)CC2` (stereo not given), the EC50 came to 35.7 nM on D(2) dopamine receptor [1] and 18.9 nM on D(2) dopamine receptor [2]. The affinity on D(2) dopamine receptor [3], expressed as Ki, was 366 nM.
